Measured values reported in paper PMC7588194 (Virulence, 2020).

System: P. aeruginosa (ATCC 27853)
Assay: Radial diffusion assay
Format: cell-based
Conditions: for concentration achieving similar inhibition zones / enhancement of antimicrobial activity among derivatives D1-D7: Figure 6C
Method: To identify library fractions and purified peptides with antibacterial activity a radial diffusion assay was carried out. Bacteria were cultured in liquid THY broth (Todd-Hewitt Broth [Oxoid, CM0189B] supplemented with 0.5% yeast extract [BD, Miami, USA, 212,750]) at 37°C overnight in a 5% CO2 atmosphere, pelleted by centrifugation and washed in 10 mM sodium phosphate buffer. Following resuspension in 10 mM sodium phosphate buffer optical density was determined spectrophotometrically at 600 nm (OD600nm). Bacterial density was adjusted to seed 2 × 10^7 bacteria into a petri dish in 1% agarose dissolved in 10 mM sodium phosphate buffer. Plates were allowed to cool for 30 min at 4°C before several 2–3 mm holes were placed into the 1% agarose. Freeze-dried fractions of the BAL library pool were reconstituted in 200 µl of ddH2O with 10 µl being used for the initial screen. Alternatively, peptides adjusted to the desired concentration in 10 µl of ddH2O were filled into the agar-holes. Following incubation at 37°C in ambient air for 3 h plates were overlaid with 10 ml of a 1% agarose solution containing 3% tryptic soy broth (TSB) dissolved in 10 mM phosphate buffer. Inhibition zones in cm were determined following 16–18 h incubation time at 37°C in a 5% CO2 atmosphere.

Sequence | times the amount needed compared to D7 at 25 µg/ml for similar inhibition zones | concentration achieving similar inhibition zones [µg/mL] | enhancement of antimicrobial activity among derivatives D1-D7
RVNHVTLSQPKIVKW [B2M 101-115] | 2–4 | 50 to 100 | –
GVNHVKLSQIKIVKW [B2M D7] | – | 25 | most convincing enhancement of antimicrobial activity
GVNHVILSQIKIVKW [B2M D6] | – | – | most convincing enhancement of antimicrobial activity
